For orientation: AC50 means the concentration giving half of the maximal activity seen. In general, IC50 refers to the midpoint of a concentration-inhibition curve. One may read the EC50 as the concentration that produces a half-maximal response.

The structures appear in SMILES notation. Calls of active or inactive are those of the source.

The source of these data is ChEMBL document CHEMBL1201862, “PubChem BioAssay data set” (2004).

For one assay, the system named is HeLa. The assay is described as follows: ATP-based viability loss in HeLa cells – cell-based, CellTiter-Glo luminescence, cherry-pick samples, cytotoxicity control for MITF activator project, dose response (AID 540259). The class given is functional. The settings on record: Homo sapiens. (In general: Cellular ATP, detected with luciferase, serves as a proxy for viable cell number.)

The next assay addresses Large T antigen (Simian virus 40, UniProt P03070). The class given is functional, Betapolyomavirus macacae.
Assay [1] concerns the target Induced myeloid leukemia cell differentiation protein Mcl-1 (Homo sapiens, UniProt Q07820). The class given is functional.
Assay [2] concerns the target T1, Long-chain-fatty-acid--AMP ligase FadD28 (Mycobacterium tuberculosis, UniProt P9WQ59).
T1 sequence (P9WQ59 whole entry): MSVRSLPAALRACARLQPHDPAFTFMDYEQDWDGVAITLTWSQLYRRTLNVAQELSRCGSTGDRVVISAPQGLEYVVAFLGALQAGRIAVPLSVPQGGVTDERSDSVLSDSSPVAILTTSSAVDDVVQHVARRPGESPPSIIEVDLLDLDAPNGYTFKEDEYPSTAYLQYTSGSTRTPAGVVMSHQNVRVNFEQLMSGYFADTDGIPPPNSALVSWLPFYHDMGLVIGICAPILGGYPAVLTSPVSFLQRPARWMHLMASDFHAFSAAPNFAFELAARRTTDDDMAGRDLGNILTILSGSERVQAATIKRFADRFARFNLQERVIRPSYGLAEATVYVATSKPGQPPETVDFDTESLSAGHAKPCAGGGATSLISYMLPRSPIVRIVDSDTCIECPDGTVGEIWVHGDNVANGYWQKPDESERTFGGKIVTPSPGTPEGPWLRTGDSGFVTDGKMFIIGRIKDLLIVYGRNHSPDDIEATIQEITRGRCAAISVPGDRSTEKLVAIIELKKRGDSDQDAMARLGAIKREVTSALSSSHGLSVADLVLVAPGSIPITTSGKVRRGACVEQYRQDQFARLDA
The assay is described as follows: Fluorescence polarization aasay to screen for inhibitors that compete for the binding of FadD28 to a bisubstrate Measured in Biochemical System Using Plate Reader - 2147-01_Inhibitor_Dose_CherryPick_Activity. Format: functional, Mycobacterium tuberculosis H37Rv.

For assay [3], the target named is T2, Nuclear receptor subfamily 0 group B member 1 (Homo sapiens, UniProt P51843).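 Note: HEK293T cells transfected with SF-1 and DAX-1 plus StAR promoter luciferase reporter.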
T2 sequence (P51843 whole entry): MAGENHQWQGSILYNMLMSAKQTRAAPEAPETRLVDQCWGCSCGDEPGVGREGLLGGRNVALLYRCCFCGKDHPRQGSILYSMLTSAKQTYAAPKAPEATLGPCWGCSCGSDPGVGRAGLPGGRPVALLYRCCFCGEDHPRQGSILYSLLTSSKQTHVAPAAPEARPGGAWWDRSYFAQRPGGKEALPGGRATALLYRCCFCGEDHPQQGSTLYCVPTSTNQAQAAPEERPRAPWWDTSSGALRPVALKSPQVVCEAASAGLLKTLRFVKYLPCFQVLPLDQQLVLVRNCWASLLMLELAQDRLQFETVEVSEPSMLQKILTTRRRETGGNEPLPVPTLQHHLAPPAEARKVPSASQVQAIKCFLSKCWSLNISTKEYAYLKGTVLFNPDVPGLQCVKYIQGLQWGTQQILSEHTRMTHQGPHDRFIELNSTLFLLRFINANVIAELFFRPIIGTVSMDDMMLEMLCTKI
The class given is functional, cell-based.

Assay [4] can be described thus: cells. Format: functional, cell-based.
Assay [5] in a line: blockers of bursicon-stimulated LGR2 cAMP reporter – cell-based, HEK293, CRE-luciferase reporter, cherry pick, set 2, dose response (AID 743343).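 Note: transfected cells were stimulated with diluted bursicon conditioned medium after compound addition.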 The class given is functional. A general note: In a reporter assay the amount or activity of a reporter protein is the signal.
The nature of assay [6]: blockade of melanocortin 4 receptor signaling – cell-based, plate reader, cherry pick, counter-screen for LGR2 antagonist project, dose response (AID 743444).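 Note: transfected HEK 293 cells stimulated with alpha-MSH peptide; potency of inhibitors of the alpha-MSH evoked signal.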 The class given is functional. For orientation: A counterscreen serves to expose hits that act by an unwanted route or on another target.
Assay [7] can be described thus: toxicity toward HepG2 liver cells – cell-based, plate reader, cherry-pick, antagonist series, cytotoxicity control, dose response (AID 743416). The class given is functional.
Assay [8] in a line: A549 cell cytotoxicity, dose response, cytotoxicity control, plate reader, cherry-pick, antagonist series (AID 743412). Format: functional, cell-based.
For the next assay, the target named is T3, Caspase-6 (Homo sapiens, UniProt P55212).
T3 sequence (P55212 whole entry): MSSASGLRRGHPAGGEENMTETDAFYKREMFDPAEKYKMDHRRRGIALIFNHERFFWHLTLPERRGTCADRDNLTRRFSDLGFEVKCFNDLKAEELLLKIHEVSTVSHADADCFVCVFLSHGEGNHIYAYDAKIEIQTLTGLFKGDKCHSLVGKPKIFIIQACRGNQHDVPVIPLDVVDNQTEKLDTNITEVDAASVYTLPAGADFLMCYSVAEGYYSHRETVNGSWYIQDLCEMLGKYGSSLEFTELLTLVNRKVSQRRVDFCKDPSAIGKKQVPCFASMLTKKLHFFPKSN
The assay is described as follows: inhibition of CASP6 peptide cleavage – biochemical, VEID-R110 fluorescence, cherry-pick, dose response (AID 720632).

The next assay has as its target Albumin (Bos taurus, UniProt P02769). The assay is described as follows: Counterscreen for inhibitors of T-cell receptor (TCR)-CD3 interaction: Fluorescence-based biochemical high throughput dose response assay to identify inhibitors of T-cell receptor (TCR)-CD3 interaction using a TAMRA-labeled BSA probe. The class given is functional.
Assay [9] is described as follows: cells.
Assay [10] deals with T4, Oxysterols receptor LXR-beta (Homo sapiens, UniProt P55055).
T4 sequence (P55055 whole entry): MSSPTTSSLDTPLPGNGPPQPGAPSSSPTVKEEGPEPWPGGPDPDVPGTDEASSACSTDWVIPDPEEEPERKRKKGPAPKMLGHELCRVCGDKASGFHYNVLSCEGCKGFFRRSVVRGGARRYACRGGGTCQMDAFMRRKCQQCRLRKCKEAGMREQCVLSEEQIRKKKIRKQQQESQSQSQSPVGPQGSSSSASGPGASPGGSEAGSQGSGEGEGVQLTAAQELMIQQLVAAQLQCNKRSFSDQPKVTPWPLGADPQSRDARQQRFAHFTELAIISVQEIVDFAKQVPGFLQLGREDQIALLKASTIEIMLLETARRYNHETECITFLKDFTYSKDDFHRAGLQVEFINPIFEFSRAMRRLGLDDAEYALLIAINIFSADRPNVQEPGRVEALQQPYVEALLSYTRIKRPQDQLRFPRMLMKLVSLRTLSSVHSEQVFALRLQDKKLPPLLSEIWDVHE
The class given is functional, cell-based.

The nature of assay [11]: Luminescence Cell-Based Dose Confirmation HTS to Identify Inhibitors of Platelet Dense Granule Release. [Related pubchem assays: 1663 (Primary HTS), 1678 (Summary of Project)]. Format: functional.
For another assay, the target named is T5, Protein skinhead-1 (Caenorhabditis elegans, UniProt P34707).
T5 sequence (P34707 whole entry): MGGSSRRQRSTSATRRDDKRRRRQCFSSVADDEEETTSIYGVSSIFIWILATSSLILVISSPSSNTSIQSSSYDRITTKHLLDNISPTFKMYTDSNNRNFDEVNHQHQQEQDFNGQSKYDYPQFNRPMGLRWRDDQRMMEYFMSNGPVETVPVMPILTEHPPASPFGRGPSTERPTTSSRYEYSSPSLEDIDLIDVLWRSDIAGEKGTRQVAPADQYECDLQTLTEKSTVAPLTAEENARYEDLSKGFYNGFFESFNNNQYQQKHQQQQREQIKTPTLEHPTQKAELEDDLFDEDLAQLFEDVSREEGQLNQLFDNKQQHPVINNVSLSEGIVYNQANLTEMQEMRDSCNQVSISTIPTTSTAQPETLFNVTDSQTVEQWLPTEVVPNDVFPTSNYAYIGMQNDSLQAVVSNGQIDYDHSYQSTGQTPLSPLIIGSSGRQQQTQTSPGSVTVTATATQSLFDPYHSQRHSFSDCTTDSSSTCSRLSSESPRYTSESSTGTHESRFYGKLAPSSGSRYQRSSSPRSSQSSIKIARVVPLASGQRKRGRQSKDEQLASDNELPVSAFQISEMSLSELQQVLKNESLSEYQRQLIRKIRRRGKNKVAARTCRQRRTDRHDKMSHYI
Format: functional.

The target in assay [12] is Luciferin 4-monooxygenase (Photinus pyralis, UniProt P08659). The assay is described as follows: inhibition of purified Photinus pyralis luciferase – biochemical, luminescence, dose response (AID 1891).
Assay [13] concerns the target T6, Fatty acid synthase (Homo sapiens, UniProt P49327). The assay is described as follows: inhibition of human FAS-TE enzyme activity – biochemical, endpoint fluorescence intensity, uHTS hits, dose response (AID 624327).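 Note: fluorescence from hydrolysis of an O-methyl fluorescein acyl ester substrate by the enzyme.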 Format: functional.
Assay [14] has as its target T6, Fatty acid synthase. The assay is described as follows: inhibition of human FAS-TE enzyme activity – biochemical, kinetic fluorescence intensity, dose response (AID 624326).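 Note: rate of fluorescence rise from hydrolysis of a fluorogenic O-methyl fluorescein ester substrate.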 Format: functional.
For a further assay, the target named is Cytochrome P450 3A4 (Homo sapiens, UniProt P08684). The settings on record: Potency.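 Note: confirmatory qHTS run detecting inhibitors and substrates of CYP3A4.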
Chain of Cytochrome P450 3A4 (P08684 whole entry): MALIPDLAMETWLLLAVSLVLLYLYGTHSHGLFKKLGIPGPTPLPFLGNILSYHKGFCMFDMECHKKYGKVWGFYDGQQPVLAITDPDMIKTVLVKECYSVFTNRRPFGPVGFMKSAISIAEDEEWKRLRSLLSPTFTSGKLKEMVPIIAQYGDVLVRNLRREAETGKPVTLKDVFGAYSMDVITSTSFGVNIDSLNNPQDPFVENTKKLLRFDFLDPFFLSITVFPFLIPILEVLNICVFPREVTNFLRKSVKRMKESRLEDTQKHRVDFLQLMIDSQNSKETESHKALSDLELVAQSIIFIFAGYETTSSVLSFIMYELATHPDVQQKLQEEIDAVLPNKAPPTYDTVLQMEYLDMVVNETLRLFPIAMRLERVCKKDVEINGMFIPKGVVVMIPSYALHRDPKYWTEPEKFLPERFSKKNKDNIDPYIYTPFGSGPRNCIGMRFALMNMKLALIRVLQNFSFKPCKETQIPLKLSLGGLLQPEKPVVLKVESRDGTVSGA

T6 sequence (P49327 whole entry): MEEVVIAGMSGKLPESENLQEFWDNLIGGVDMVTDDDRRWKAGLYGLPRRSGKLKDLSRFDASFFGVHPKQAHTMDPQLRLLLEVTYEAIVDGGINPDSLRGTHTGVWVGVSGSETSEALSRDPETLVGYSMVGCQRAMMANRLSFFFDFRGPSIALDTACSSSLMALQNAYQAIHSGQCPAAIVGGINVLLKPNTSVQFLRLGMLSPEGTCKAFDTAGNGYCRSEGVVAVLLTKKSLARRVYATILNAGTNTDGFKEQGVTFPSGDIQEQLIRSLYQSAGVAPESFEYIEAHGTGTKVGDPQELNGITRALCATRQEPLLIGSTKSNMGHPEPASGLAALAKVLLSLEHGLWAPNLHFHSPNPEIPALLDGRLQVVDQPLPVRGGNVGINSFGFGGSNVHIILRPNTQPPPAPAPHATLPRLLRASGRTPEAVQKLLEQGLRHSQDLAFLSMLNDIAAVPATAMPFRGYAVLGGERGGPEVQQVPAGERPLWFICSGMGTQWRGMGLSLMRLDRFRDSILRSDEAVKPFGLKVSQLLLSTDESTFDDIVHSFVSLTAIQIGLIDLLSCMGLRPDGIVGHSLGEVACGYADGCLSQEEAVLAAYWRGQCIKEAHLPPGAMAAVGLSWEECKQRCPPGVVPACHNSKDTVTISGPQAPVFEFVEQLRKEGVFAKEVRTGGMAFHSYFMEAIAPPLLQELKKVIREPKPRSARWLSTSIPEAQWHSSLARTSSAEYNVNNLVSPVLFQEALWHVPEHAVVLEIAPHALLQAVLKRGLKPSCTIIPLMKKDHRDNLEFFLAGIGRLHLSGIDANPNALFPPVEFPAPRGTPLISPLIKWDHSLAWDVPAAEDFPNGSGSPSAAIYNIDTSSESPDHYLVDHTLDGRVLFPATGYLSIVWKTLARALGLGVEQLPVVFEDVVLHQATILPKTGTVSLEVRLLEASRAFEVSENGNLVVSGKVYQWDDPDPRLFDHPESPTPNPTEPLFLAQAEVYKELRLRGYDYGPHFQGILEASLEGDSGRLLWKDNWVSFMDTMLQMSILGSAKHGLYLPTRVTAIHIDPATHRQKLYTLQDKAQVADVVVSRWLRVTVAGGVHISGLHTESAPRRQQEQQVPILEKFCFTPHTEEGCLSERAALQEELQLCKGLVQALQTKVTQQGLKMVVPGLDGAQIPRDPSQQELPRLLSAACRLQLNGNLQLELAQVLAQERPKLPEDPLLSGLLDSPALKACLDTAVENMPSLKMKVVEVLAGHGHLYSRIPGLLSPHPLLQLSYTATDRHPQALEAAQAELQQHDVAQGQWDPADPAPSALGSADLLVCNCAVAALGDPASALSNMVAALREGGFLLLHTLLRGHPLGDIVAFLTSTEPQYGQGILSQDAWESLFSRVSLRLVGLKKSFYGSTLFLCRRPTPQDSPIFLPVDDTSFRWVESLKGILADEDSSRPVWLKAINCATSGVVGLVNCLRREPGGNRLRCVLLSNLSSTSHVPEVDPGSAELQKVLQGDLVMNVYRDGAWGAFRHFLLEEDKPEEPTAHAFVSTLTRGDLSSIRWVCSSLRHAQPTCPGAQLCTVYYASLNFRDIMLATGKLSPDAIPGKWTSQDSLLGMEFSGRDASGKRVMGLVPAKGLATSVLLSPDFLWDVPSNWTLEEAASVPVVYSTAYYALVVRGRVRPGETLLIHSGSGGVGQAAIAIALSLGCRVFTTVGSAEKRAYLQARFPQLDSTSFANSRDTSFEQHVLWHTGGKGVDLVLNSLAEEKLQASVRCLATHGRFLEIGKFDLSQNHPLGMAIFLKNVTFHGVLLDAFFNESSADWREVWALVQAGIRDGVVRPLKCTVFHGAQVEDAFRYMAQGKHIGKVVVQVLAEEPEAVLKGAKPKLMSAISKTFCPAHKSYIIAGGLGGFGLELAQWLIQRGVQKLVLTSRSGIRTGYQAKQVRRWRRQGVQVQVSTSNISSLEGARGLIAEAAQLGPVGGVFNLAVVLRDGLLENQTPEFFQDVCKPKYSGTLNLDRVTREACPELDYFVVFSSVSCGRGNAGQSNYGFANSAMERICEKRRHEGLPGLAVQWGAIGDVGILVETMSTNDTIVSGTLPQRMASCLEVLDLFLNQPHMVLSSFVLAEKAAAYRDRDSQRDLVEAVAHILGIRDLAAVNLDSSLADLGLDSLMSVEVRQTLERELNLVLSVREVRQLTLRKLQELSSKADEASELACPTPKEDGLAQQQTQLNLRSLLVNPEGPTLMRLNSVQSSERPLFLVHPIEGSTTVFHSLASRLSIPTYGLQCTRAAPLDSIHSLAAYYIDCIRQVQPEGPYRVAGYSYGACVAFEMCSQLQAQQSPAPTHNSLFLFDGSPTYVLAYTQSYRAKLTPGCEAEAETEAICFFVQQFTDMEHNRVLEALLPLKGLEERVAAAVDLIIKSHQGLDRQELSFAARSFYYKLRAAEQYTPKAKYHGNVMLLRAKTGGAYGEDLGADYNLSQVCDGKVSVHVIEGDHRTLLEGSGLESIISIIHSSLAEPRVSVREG
Chain of Albumin (P02769 whole entry): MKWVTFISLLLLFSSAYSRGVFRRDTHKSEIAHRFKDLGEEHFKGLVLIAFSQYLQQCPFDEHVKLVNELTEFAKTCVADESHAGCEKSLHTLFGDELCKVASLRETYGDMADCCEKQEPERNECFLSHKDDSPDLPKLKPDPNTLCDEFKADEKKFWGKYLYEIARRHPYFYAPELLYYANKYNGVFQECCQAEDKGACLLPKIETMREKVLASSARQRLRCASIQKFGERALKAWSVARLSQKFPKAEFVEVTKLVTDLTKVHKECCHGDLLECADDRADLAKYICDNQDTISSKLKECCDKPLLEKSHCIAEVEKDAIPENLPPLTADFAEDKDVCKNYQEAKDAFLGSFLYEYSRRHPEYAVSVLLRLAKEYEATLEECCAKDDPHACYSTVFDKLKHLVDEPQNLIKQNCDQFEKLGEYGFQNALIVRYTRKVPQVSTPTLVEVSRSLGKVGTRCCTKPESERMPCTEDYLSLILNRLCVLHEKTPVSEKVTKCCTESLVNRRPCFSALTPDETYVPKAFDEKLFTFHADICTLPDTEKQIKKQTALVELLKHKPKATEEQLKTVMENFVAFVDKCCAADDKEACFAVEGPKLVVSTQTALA
Chain of Large T antigen (P03070 whole entry): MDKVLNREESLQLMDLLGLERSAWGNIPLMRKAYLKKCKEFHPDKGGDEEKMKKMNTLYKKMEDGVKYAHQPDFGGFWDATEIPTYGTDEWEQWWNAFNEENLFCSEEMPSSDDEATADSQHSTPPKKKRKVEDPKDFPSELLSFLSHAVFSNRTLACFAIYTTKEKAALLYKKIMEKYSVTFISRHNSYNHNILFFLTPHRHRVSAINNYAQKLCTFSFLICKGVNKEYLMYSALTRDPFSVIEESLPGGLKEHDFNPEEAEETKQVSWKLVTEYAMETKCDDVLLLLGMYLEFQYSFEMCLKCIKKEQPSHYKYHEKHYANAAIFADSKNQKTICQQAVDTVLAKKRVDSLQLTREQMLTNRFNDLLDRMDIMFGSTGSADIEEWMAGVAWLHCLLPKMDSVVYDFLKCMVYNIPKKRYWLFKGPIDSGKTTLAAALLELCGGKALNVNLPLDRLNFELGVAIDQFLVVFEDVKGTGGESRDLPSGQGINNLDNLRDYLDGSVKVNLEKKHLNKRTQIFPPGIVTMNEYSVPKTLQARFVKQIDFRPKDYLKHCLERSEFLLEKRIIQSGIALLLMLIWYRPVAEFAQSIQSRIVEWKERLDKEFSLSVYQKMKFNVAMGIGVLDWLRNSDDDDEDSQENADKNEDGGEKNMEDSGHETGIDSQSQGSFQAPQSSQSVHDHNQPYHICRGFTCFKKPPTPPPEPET
Chain of Luciferin 4-monooxygenase (P08659 whole entry): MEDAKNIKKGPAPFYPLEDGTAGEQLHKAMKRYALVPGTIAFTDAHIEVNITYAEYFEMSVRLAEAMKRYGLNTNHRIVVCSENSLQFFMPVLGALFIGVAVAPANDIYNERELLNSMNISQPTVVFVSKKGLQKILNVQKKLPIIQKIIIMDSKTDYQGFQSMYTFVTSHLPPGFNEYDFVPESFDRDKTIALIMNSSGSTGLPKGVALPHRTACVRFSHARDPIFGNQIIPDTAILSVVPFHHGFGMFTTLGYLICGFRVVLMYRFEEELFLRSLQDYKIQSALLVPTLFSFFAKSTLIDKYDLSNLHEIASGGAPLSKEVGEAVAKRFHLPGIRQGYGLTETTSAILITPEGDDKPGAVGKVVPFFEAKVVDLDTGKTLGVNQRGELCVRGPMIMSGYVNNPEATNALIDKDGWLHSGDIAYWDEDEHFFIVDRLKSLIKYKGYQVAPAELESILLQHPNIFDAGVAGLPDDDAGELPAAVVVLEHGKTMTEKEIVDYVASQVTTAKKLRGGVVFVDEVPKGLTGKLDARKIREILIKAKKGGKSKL

Regarding `Cc1ccccc1S(=O)(=O)Oc1ccc2ccc(O)cc2c1`, the AC50 in the assay on HeLa is 49.4 µM (active).
As for `O=C1NN(c2ccccc2)C(=O)/C1=C\c1ccc(-c2cc([N+](=O)[O-])ccc2O)o1`, the IC50 on Large T antigen is 20.7 µM (active); in assay [1], 10.7 µM (active). Moreover, in [2], the AC50 was 8.08 µM (active).
With `CC(C)c1nnc(NC(=O)c2ccc3c(c2)OCO3)s1`, the IC50 in assay [3] is > 0.278 µM (active); in the assay “cells [4]”, > 67.6 µM (inactive). Further, the half-maximal activity concentration (AC50) in [5] is 4.95 µM (active); in [6] it was 5.43 µM (active); in [7], > 52 µM (inactive); in assay [8], > 52 µM (inactive).
Turning to `O=C(NNC(=O)c1ccccc1F)c1cccc(-n2cccc2)c1`, the AC50 on Caspase-6 was 1.2 µM (active). Moreover, on Albumin, the IC50 is > 94 µM (inactive).
As for `Clc1ccc(-c2ccc(SCc3ccccn3)nn2)cc1`, in the assay on HeLa, the AC50 was 50.7 µM (active).
Take `COCCn1c(C)cc(C(=O)CN2C(=O)NC3(CCCCCC3)C2=O)c1C`: the IC50 (in assay [3]; in the assay “cells [4]”) was > 67.5 µM (inactive) in each case.
`Cc1ccc2oc(Nc3nc(C)c(C)c(C)n3)nc2c1`: the half-maximal activity concentration (AC50) in the assay with HeLa was 192 µM (active).
As for `Cc1ccc2[nH]c(CSc3nc(C)cc(C)c3C#N)nc2c1`, the EC50 (in the assay “cells [9]”; in [10]) was > 67.5 µM (inactive) in each case.
Consider `CC(=O)NNC(=S)NC(=O)c1ccc(C)cc1`, for which, at Albumin, the IC50 is > 94 µM (inactive).
With `O=C(/C=C/Nc1ccc(F)cc1F)c1ccco1`, the EC50 was 4.36 µM (active) in assay [11] and 0.812 µM (active) in [12]. Further, the IC50 was > 67.5 µM (inactive) in [3], > 67.5 µM (inactive) in “cells [4]” and 17 µM (active) at Protein skinhead-1.
`CS(=O)(=O)N1CCc2cc(C(=O)Nc3ccccc3Br)ccc21`: the AC50 in the assay with HeLa was > 350 µM (inactive).
`CCN(N=O)c1ccc(C=C2C=Cc3ccccc32)cc1`: the concentration at half-maximal activity (AC50) with HeLa was 68.9 µM (active).
With `C=CCOc1c(Br)cc(/C=N/Nc2ccc(C(=O)O)cc2)cc1OCC`, the IC50 is 12.6 µM (active) at Fatty acid synthase [13] and 10.5 µM (active) on Fatty acid synthase [14]. Further, the concentration at half-maximal activity (AC50) in assay [2] was 62.7 µM (active).
As for `COc1ccc(-c2cc(=O)c3cc(OC)ccc3o2)cc1` [6,4'-DIMETHOXYFLAVONE], the IC50 (in assay [3]; in the assay “cells [4]”) was > 67.5 µM (inactive) throughout. The AC50 on Cytochrome P450 3A4 was 3.16 µM (inconclusive).
